Results as given in publication PMC12702928, “Improved exposure of curcumin-loaded nanocapsules: drug quantification in LPS-induced Drosophila melanogaster and pharmacokinetics in Wistar rats” (Frontiers in Pharmacology, 2025).
“And” between values parts separate entries of the source, which are not always exact repeats. Equal values may be shown once. Read-outs that look alike come from different tables or passages of the source.

Legend:
[1] = ref Nakama et al., 2020; cited from earlier work
healthy flies = system: healthy flies; parameters: method as in Fernandes et al., 2023; details: ref Fernandes et al., 2023; cited from earlier work
[2] = Stability of CUR in spiked rat plasma; format: in vitro ADME; details: Plasma rats
Procedure: The rat plasma extraction was processed similarly to that of the flies, with 10 µL of each calibration standard sample mixed with 90 µL of blank rat plasma and 10 µL of the IS, followed by deproteinization with acetonitrile.
(§1) Stability tests were performed under identical conditions for both matrices: room temperature for 6 h (22 °C ± 3 °C), in the autosampler for up to 24 h (22 °C ± 3 °C), after 60 days in a freezer (−80 °C ± 2 °C), and across three freeze-thaw cycles, with each thawing period at room temperature for approximately 2 h and refreezing for 12 h at −20 °C. For each species, three replicates at concentrations of 3 and 150 ng/mL were tested.
(§2) Samples were deemed stable if the results fell within the acceptable limits of accuracy (±15% of nominal concentration) and precision (±15% CV). For the LLOQ, the CV was not to exceed 20% ([FDA, 2018]; [ICH, 2019]).

[3] = Fly whole-body CUR quantification after 10-day dietary exposure, healthy flies; format: in vivo, D. melanogaster; details: both sexes, Drosophila melanogaster, whole-body homogenate, oral, 110 ng/mL in food medium for 10 days
Procedure: (§3) This homogenate was prepared by weighing 0.02 g of whole flies, followed by adding 600 µL of acetonitrile and homogenizing with an Ultra-Turrax (T10, GmbH, Germany) for 30 s at 28,800 rpm. The mixture was centrifuged at 14,000 rpm for 10 min at 4 °C to obtain the whole-body fly homogenate supernatant (S1). Subsequently, 90 µL of S1 was spiked with 10 µL of each calibration standard and 10 µL of the IS. Deproteinization was achieved by adding 1,000 µL of acetonitrile and 10 µL of 0.2% HCl. The mixtures were vortexed for 5 min, then centrifuged at 14,000 rpm for 10 min at 4 °C. The supernatant was separated, evaporated to dryness using a centrifugal vacuum concentrator at 45 °C for 60 min, and the residue reconstituted in 100 µL of mobile phase.
Adult healthy flies (1–3 days old) of both sexes were used, with each group consisting of 25 males and 25 females (n = 6 replicates/50 flies each). […] The medium was replaced every 3 days. The dosing and study design were based on our previous study ([Fernandes et al., 2023]).

[4] = Stability of CUR in spiked S1 flies (whole-body fly homogenate supernatant); format: in vitro ADME, D. melanogaster
Procedure: as §3, §1, §2

[5] = parameters: method as in Yang et al., 2007; details: rats; 500 mg kg; ref Yang et al., 2007; cited from earlier work
[6] = Fly whole-body CUR quantification, lipopolysaccharide-induced inflammation; format: in vivo, D. melanogaster; details: LPS 250 μg/mL in food medium + 37 ng/mL for 10 days
Procedure: as §3

[7] = parameters: method as in Wang et al., 2018; details: mice; intravenous administration of 20 mg kg; ref Wang et al., 2018; cited from earlier work
[8] = Pharmacokinetic study in rodents (non-compartmental analysis); format: in vivo, Wistar rats
Procedure: As described in our previous study, the NC-CUR was prepared via the interfacial deposition method of preformed polymers, ensuring the same final concentration ([Santos et al., 2021]). […] For the oral administration groups, blood sampling began 0.25 h post-gavage (Figure 1B). […] Pharmacokinetic parameters were calculated using non-compartmental analysis with PKanalix 2023R1 software (Lixoft, France). Plasma concentration-time profiles for each experimental group were analyzed individually.

[9] = In vitro release (dialysis bag method) and release kinetics modelling; format: physicochemical
Procedure: The release medium was phosphate-buffered saline, prepared according to pharmacopeial standards and consisting of 0.02% KCl (w/v), 0.02% KH2PO4 (w/v), 0.116% Na2HPO4 (w/v), and 0.8% NaCl (w/v) (adjusted with 10 mM NaOH, pH 7.4) ([Anvisa, 2019]).
The dialysis bags containing CUR-loaded NCs were immersed in the phosphate-buffered saline medium at 37 °C with horizontal shaking at 50 rpm.
At predetermined intervals, 2 mL of the medium was withdrawn for analysis with a UV spectrophotometer (UV-1800, Shimadzu, Japan) at 427 nm. The experiments were conducted in triplicate (n = 3), with results reported as the percentage of drug released over time.
Evaluated models included zero-order (Equation 1), monoexponential (Equation 2), bi-exponential (Equation 3), Weibull (Equation 4), and Higuchi (Equation 5). F=k0·t (1) F=100 ·1−e^−k1·t (2) F=100·1−Ae^−αt+Be^−βt (3) F=100·1−e^−t^β/α (4) F=kH·t^0.5 (5) where F is the percentage of drug released at time t (h), k 0 is the zero-order release constant (h^−1), k 1 is the first-order release constant (h^−1), A and B represent the fractions of drug distributed in different phases, and α and β (h^−1) are the specific kinetic rate constants. k H represents the Higuchi release constant.
The drug release mechanism was further evaluated by fitting the data to the Peppas-Sahlin (Equation 6) and Korsmeyer-Peppas (Equation 7) models: F=k1· t^0.5+k2 ·t (6) F=kKP·t^n (7) where k 1 is the constant (h^−1) denoting the relative contribution of t ^0.5 dependent drug diffusion to drug release, k 2 is the constant (h^−1) denoting the relative contribution of t-dependent polymer relaxation to drug release, k KP is the kinetic constant of the Korsmeyer-Peppas model, and n is the diffusion exponent that indicates the drug transport mechanism.
The release profiles were plotted and fitted using different in vitro release models. The results of the in vitro drug release study were evaluated based on dissolution efficiency and independent/dependent kinetic models. Model selection was performed considering the highest correlation coefficient (R ^2) and the Akaike Information Criterion (AIC) ([Vieira et al., 2016]).

[10] = nominal 3 ng/mL, 6 h (bench-top)
[11] = nominal 3 ng/mL, 24 h 6 h (bench-top)
[12] = nominal 3 ng/mL, Freeze-thaw cycles
[13] = nominal 150 ng/mL, 6 h (bench-top)
[14] = nominal 150 ng/mL, 24 h (autosampler)
[15] = nominal 150 ng/mL, 60 d (−80 °C)
[16] = nominal 150 ng/mL, Freeze-thaw cycles
[17] = male, Wistar, rat, plasma, iv, 2 mg/kg, Intravenous 2 mg/kg
[18] = male, Wistar, rat, plasma, Intravenous 2 mg/kg
[19] = male, Wistar, rat, plasma, Oral 6 mg/kg

SMILES: COc1cc(/C=C/C(=O)CC(=O)/C=C/c2ccc(O)c(OC)c2)ccc1O [CUR, Curcumin]
- Log P [1]: ~3.2
- concentrations producing increased survival and enhanced antioxidant defenses (healthy flies): above 300 μM
- Mean ± SD [2, 10]: 2.58 ± 0.04 ng/mL
- Accuracy [2, 11]: 98.08%
- Mean ± SD [2, 11]: 2.94 ± 0.19 ng/mL
- Accuracy ([2]; nominal 3 ng/mL, 60 d (−80 °C)): 86.28%
- Mean ± SD ([2]; nominal 3 ng/mL, 60 d (−80 °C)): 2.58 ± 0.05 ng/mL
- Accuracy [2, 12]: 86.23%
- Mean ± SD [2, 12]: 2.58 ± 0.04 ng/mL
- Accuracy [2, 13]: 99.1%
- Mean ± SD [2, 13]: 148.64 ± 1.35 ng/mL
- Accuracy [2, 14]: 99.84%
- Mean ± SD [2, 14]: 149.75 ± 0.92 ng/mL
- Accuracy [2, 15]: 98.84%
- Mean ± SD [2, 15]: 148.26 ± 0.17 ng/mL
- Accuracy [2, 16]: 99.1%
- Mean ± SD [2, 16]: 148.64 ± 1.35 ng/mL
- concentration at 10 days [3]: ~75 ng/mL
- Accuracy [4, 10]: 84.45%
- Mean ± SD [4, 10]: 2.74 ± 0.39 ng/mL
- Accuracy [4, 11]: 114.19%
- Mean ± SD [4, 11]: 3.23 ± 0.24 ng/mL
- Accuracy ([4]; nominal 3 ng/mL, 60 d (−80 °C)): 103.03%
- Mean ± SD ([4]; nominal 3 ng/mL, 60 d (−80 °C)): 3.09 ± 0.26 ng/mL
- Accuracy [4, 12]: 106.81%
- Mean ± SD [4, 12]: 3.20 ± 0.27 ng/mL
- Accuracy [4, 13]: 94.59%
- Mean ± SD [4, 13]: 144.26 ± 4.68 ng/mL
- Accuracy [4, 14]: 89.72%
- Mean ± SD [4, 14]: 142.32 ± 4.62 ng/mL
- Accuracy [4, 15]: 98.39%
- Mean ± SD [4, 15]: 147.59 ± 16.88 ng/mL
- Accuracy [4, 16]: 95.99%
- Mean ± SD [4, 16]: 143.99 ± 13.47 ng/mL
- oral bioavailability (administered dose absorbed) [5]: about 1%
- CUR concentration in whole-body homogenates [6]: markedly reduced CUR levels
- half-life [7]: approximately 32.4 min
- kel ([8]; Intravenous 2 mg/kg): 0.75 h−¹
- CL ([8]; Intravenous 2 mg/kg, 2 mg/kg): 7.71 L/h
- t1/2 ([8]; Intravenous 2 mg/kg, 2 mg/kg): 1.17 h
- AUC0-∞ ([8]; Intravenous 2 mg/kg, male Wistar rats, n = 9, 2 mg/kg): 100.41 ng·h/mL
- kel ([8]; Oral 6 mg/kg): 0.54 h−¹
- clearance [8, 17]: 125 mL/min
- half-life [8, 17]: 1.77 ± 0.45 h
- AUC(0-inf) ([8]; male, Wistar, rat, plasma, iv, 2 mg/kg, Intravenous 2 mg/kg, male Wistar rats, n = 9): 100 ± 24.4 ng·h/mL
- half-life ([8]; male, Wistar, rat, plasma, po, 6 mg/kg, Oral 6 mg/kg): 1.7 h
- AUC(0-inf) ([8]; male, Wistar, rat, plasma, po, 6 mg/kg, Oral 6 mg/kg, male Wistar rats, n = 12): 25.6 ng·h/mL
- Cmax [8, 18]: 231 ng/mL
- MRT [8, 18]: 0.79 h
- Vd [8, 18]: 12.8 L
- Cmax [8, 19]: 8.04 ng/mL
- MRT [8, 19]: 3 h
- Tmax [8, 19]: 1.31 h
- bioavailability ([8]; male, Wistar, rat, plasma, Oral 6 mg/kg vs intravenous 2 mg/kg, read-out: Fabs (absolute bioavailability)): 8.48%
- B ([9]; Biexponencial model): 11.93 ± 2.50
- α ([9]; Biexponencial model): 0.15 ± 0.02 h⁻¹
- β ([9]; Biexponencial model): 0.17 ± 0.01 h⁻¹
- A ([9]; Biexponencial model (chosen model), PBS pH 7.4): 78.99 ± 2.50
- kH ([9]; Higuchi model): 18.05 ± 0.07 h⁻¹
- k ([9]; Monoexponencial model, PBS pH 7.4): 0.14 ± 0.00 h⁻¹
- α ([9]; Weibull model): 4.73 ± 0.06 h⁻¹
- β ([9]; Weibull model): 0.82 ± 0.01 h⁻¹
- k 0 ([9]; Zero order model, PBS pH 7.4): 2.57 ± 0.01 h⁻¹
- drug released ([9]; at 6 h): 56.09%
- drug released ([9]; at 12 h): 97.69% and ~100%
